Assay type in all cases: cell-based
In one assay the target is T1, human VPAC1 receptor (Homo sapiens, UniProt P32241).
T1 construct: expressed in transfected cells; host or cells: CHO cells (G418 selection)
T1 sequence (P32241 31-457): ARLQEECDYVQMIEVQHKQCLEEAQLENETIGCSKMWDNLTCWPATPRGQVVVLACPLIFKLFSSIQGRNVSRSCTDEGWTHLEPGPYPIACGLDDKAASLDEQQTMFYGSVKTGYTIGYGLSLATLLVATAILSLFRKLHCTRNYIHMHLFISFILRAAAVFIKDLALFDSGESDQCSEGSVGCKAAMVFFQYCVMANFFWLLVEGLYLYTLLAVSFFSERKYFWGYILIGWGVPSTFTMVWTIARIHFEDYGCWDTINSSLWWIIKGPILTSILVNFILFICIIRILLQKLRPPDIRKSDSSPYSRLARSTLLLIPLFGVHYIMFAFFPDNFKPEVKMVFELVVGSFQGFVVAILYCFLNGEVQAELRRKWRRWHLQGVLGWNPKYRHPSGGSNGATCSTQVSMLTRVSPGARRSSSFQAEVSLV
The experiment in a line: cAMP stimulation in CHO cells expressing VPAC1. The settings on record: for Emax: CHO, read-out: VPAC1 Emax; for Receptor selectivity ratio VPAC1/PAC1: ratio of cAMP EC50 values; for EC50: read-out: VPAC1 EC50.

Another assay deals with T2, human VPAC2 receptor (Homo sapiens, UniProt P41587).
T2 construct: expressed in transfected cells; host or cells: CHO cells (G418 selection)
T2 sequence (P41587 24-438): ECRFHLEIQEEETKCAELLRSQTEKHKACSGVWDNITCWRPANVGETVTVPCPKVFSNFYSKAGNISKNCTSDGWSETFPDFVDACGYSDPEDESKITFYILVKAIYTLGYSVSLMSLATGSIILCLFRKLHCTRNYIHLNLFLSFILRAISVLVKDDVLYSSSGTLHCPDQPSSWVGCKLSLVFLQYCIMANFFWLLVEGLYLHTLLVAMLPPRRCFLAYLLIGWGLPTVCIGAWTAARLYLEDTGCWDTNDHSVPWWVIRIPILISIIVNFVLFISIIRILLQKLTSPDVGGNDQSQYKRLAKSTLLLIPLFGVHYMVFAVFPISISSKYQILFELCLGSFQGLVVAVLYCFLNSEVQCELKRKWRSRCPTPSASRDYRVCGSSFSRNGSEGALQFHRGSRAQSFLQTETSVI
The experiment in a line: cAMP stimulation in CHO cells expressing VPAC2. The settings on record: for Emax: CHO; for Receptor selectivity ratio VPAC2/PAC1 / Receptor selectivity ratio VPAC2/VPAC1: ratio of cAMP EC50 values. In a few lines: (§1)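 Serum-starved CHO cells expressing human receptors were pre-treated 20 min with 500 μM IBMX, then exposed to agonist concentration curves for 10 min in 500 μM IBMX. cAMP quantified by competition with bovine PKA and ^3H-cAMP (1 h, room temperature), scintillation read.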

The target in the next assay is T3, human PAC1 receptor (Homo sapiens, UniProt P41586).
T3 construct: expressed in transfected cells; host or cells: CHO cells (G418 selection)
T3 sequence (P41586 21-468): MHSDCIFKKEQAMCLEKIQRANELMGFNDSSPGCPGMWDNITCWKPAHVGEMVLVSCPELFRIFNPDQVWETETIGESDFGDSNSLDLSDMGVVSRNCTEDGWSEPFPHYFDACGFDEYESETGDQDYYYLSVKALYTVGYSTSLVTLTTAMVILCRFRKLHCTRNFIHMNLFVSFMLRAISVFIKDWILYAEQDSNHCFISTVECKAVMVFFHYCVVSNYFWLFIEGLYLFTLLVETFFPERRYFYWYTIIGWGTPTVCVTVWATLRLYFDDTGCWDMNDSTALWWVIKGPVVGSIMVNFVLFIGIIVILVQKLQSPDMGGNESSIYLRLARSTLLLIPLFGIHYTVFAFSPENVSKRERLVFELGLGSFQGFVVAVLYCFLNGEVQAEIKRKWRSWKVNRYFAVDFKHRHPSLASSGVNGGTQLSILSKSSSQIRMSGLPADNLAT
Put plainly: cAMP stimulation in CHO cells expressing PAC1. The settings on record: for Emax: CHO. In a few lines: as §1

SMILES strings stand for the structures.

For orientation: Emax means the size of the effect at its maximum, as opposed to the concentration needed. The term EC50 denotes the midpoint of the concentration-response curve. For `CCC[C@H](NC(=O)[C@H](CCC(N)=O)NC(=O)[C@H](CCCCN)NC(=O)[C@H](CCCNC(=N)N)NC(=O)[C@H](Cc1ccc(O)cc1)NC(=O)[C@H](CCCNC(=N)N)NC(=O)[C@H](CO)NC(=O)[C@H](Cc1ccc(O)cc1)NC(=O)[C@H](CO)NC(=O)[C@H](CC(=O)O)NC(=O)[C@@H](NC(=O)[C@H](Cc1ccccc1)NC(=O)[C@@H](NC(=O)CNC(=O)[C@H](CC(=O)O)NC(=O)[C@@H](CO)NC(=O)[C@@H](N)Cc1c[nH]cn1)C(C)(C)C)[C@@H](C)O)C(=O)N[C@@H](C)C(=O)N[C@H](C(=O)N[C@@H](CCCCN)C(=O)N[C@@H](CCCCN)C(=O)N[C@@H](Cc1ccc(O)cc1)C(=O)N[C@@H](CC(C)C)C(=O)N[C@@H](C)C(=O)N[C@@H](C)C(=O)N[C@H](C(=O)N[C@@H](CC(C)C)C(=O)N[C@@H](CO[C@@H]1O[C@H](CO)[C@@H](O)[C@H](O)[C@H]1O)C(N)=O)C(C)C)C(C)C` [CRA3015], at human VPAC1 receptor, the maximal effect (Emax) turned out to be 104%, the “Receptor selectivity ratio VPAC1/PAC1” value is recorded as 0.27 and the concentration giving a half-maximal response (EC50) worked out at 120 nM. In addition, at human VPAC2 receptor, the EC50 is 866 nM, the Emax turned out to be 92%, the “Receptor selectivity ratio VPAC2/PAC1” value was 1.93 and the “Receptor selectivity ratio VPAC2/VPAC1” value came out at 7.22. Further, at human PAC1 receptor, it took 448 nM to reach a half-maximal effect (EC50) and the Emax is 72%.
With `CCC[C@H](NC(=O)[C@H](CCC(N)=O)NC(=O)[C@H](CCCCN)NC(=O)[C@H](CCCNC(=N)N)NC(=O)[C@H](Cc1ccc(O)cc1)NC(=O)[C@H](CCCNC(=N)N)NC(=O)[C@H](CO)NC(=O)[C@H](Cc1ccc(O)cc1)NC(=O)[C@H](CO)NC(=O)[C@H](CC(=O)O)NC(=O)[C@@H](NC(=O)[C@H](Cc1ccccc1)NC(=O)[C@@H](NC(=O)CN(C)C(=O)[C@H](CC(=O)O)NC(=O)[C@@H](CO)NC(=O)[C@@H](N)Cc1c[nH]cn1)[C@@H](C)CC)[C@@H](C)O)C(=O)N[C@@H](C)C(=O)N[C@H](C(=O)N[C@@H](CCCCN)C(=O)N[C@@H](CCCCN)C(=O)N[C@@H](Cc1ccc(O)cc1)C(=O)N[C@@H](CC(C)C)C(=O)N[C@@H](C)C(=O)N[C@@H](C)C(=O)N[C@H](C(=O)N[C@@H](CC(C)C)C(=O)N[C@@H](CO[C@@H]1O[C@H](CO)[C@@H](O)[C@H](O)[C@H]1O)C(N)=O)C(C)C)C(C)C` [CRA 3007], on human VPAC1 receptor, the maximum response (Emax) amounted to 111%, the “Receptor selectivity ratio VPAC1/PAC1” value is on record as 5.50 and the concentration for a half-maximal effect (EC50) is 165 nM. On human VPAC2 receptor, the EC50 was 706 nM, the Emax was 70%, the “Receptor selectivity ratio VPAC2/PAC1” value is 23.53 and the “Receptor selectivity ratio VPAC2/VPAC1” value turned out to be 4.28. Further, on human PAC1 receptor, the EC50 was found to be 30 nM and the Emax amounted to 88%. On human PAC1 receptor (from cAMP EC50 values), the “Selectivity for PAC1 over VPAC1” value is listed as ~5 fold and the “Selectivity for PAC1 over VPAC2” value is on record as ~24 fold.
As for `CCC[C@H](NC(=O)[C@H](CCC(N)=O)NC(=O)[C@H](CCCCN)NC(=O)[C@H](CCCNC(=N)N)NC(=O)[C@H](Cc1ccc(O)cc1)NC(=O)[C@H](CCCNC(=N)N)NC(=O)[C@H](CO)NC(=O)[C@H](Cc1ccc(O)cc1)NC(=O)[C@H](CO)NC(=O)[C@H](CC(=O)O)NC(=O)[C@@H](NC(=O)[C@H](Cc1ccccc1)NC(=O)[C@@H](NC(=O)CCCCNC(=O)[C@H](CC(=O)O)NC(=O)[C@@H](CO)NC(=O)[C@@H](N)Cc1c[nH]cn1)[C@@H](C)CC)[C@@H](C)O)C(=O)N[C@@H](C)C(=O)N[C@H](C(=O)N[C@@H](CCCCN)C(=O)N[C@@H](CCCCN)C(=O)N[C@@H](Cc1ccc(O)cc1)C(=O)N[C@@H](CC(C)C)C(=O)N[C@@H](C)C(=O)N[C@@H](C)C(=O)N[C@H](C(=O)N[C@@H](CC(C)C)C(=O)N[C@@H](CO[C@@H]1O[C@H](CO)[C@@H](O)[C@H](O)[C@H]1O)C(N)=O)C(C)C)C(C)C` [CRA 3009], on human VPAC1 receptor, the Emax amounted to 125%, the “Receptor selectivity ratio VPAC1/PAC1” value came to 1.86 and the EC50 turned out to be 767 nM. On human VPAC2 receptor, the EC50 is > 2500 nM and the Emax is 55%. Also, on human PAC1 receptor, the half-maximal effective concentration (EC50) was determined as 412 nM and the Emax came out at 75%.
Regarding `CC[C@H](C)[C@H](NC(=O)CNC(=O)[C@H](CC(=O)O)NC(=O)[C@H](CO)NC(=O)[C@@H](N)Cc1c[nH]cn1)C(=O)N[C@@H](Cc1ccccc1)C(=O)N[C@H](C(=O)N[C@@H](CC(=O)O)C(=O)N[C@@H](CO)C(=O)N[C@@H](Cc1ccc(O)cc1)C(=O)N[C@@H](CO)C(=O)N[C@@H](CCCNC(=N)N)C(=O)N[C@@H](Cc1ccc(O)cc1)C(=O)N[C@@H](CCCNC(=N)N)C(=O)N[C@@H](CCCCN)C(=O)N[C@@H](CCC(N)=O)C(=O)N[C@@H](CC(C)C)C(=O)N[C@@H](C)C(=O)N[C@H](C(=O)N[C@@H](CCCCN)C(=O)N[C@@H](CCCCN)C(=O)N[C@@H](Cc1ccc(O)cc1)C(=O)N[C@@H](CC(C)C)C(=O)N[C@@H](C)C(=O)N[C@@H](C)C(=O)N[C@H](C(=O)N[C@@H](CC(C)C)C(=O)N[C@@H](CO[C@@H]1O[C@H](CO[C@H]2O[C@H](CO)[C@H](O)[C@H](O)[C@H]2O)[C@@H](O)[C@H](O)[C@H]1O)C(N)=O)C(C)C)C(C)C)[C@@H](C)O` [Compound 2LS98Mel], on human VPAC1 receptor, the maximal effect (Emax) was 102%, the “Receptor selectivity ratio VPAC1/PAC1” value turned out to be 0.96 and the EC50 came out at 0.55 nM. Besides, at human VPAC2 receptor, the EC50 worked out at 9.4 nM, the Emax was 86%, the “Receptor selectivity ratio VPAC2/PAC1” value worked out at 16.49 and the “Receptor selectivity ratio VPAC2/VPAC1” value turned out to be 17.09. At human PAC1 receptor, this molecule registered an EC50 of 0.57 nM and a maximum response (Emax) of 99%.
Consider `CCC[C@H](NC(=O)[C@H](CCC(N)=O)NC(=O)[C@H](CCCCN)NC(=O)[C@H](CCCNC(=N)N)NC(=O)[C@H](Cc1ccc(O)cc1)NC(=O)[C@H](CCCNC(=N)N)NC(=O)[C@H](CO)NC(=O)[C@H](Cc1ccc(O)cc1)NC(=O)[C@H](CO)NC(=O)[C@H](CC(=O)O)NC(=O)[C@@H](NC(=O)[C@H](Cc1ccccc1)NC(=O)[C@@H](NC(=O)[C@@H](C)NC(=O)[C@H](CC(=O)O)NC(=O)[C@@H](CO)NC(=O)[C@H](Cc1c[nH]cn1)NC(C)=O)[C@@H](C)CC)[C@@H](C)O)C(=O)N[C@@H](C)C(=O)N[C@H](C(=O)N[C@@H](CCCCN)C(=O)N[C@@H](CCCCN)C(=O)N[C@@H](Cc1ccc(O)cc1)C(=O)N[C@@H](CC(C)C)C(=O)N[C@@H](C)C(=O)N[C@@H](C)C(=O)N[C@H](C(=O)N[C@@H](CC(C)C)C(=O)N[C@@H](CO[C@@H]1O[C@H](CO)[C@@H](O)[C@H](O)[C@H]1O)C(N)=O)C(C)C)C(C)C` [Ac-CRA3021], for which the Emax at human VPAC1 receptor worked out at 111%; at human VPAC2 receptor, 93%; on human PAC1 receptor, 96%.

For the origin of these results see PMC8887546, “Design and Synthesis of Brain Penetrant Glycopeptide Analogues of PACAP With Neuroprotective Potential for Traumatic Brain Injury and Parkinsonism” (Frontiers in drug discovery, 2022).
